Test results published in patent US7790687B2, “Treatment for neurodegeneration” (Proximagen Ltd., priority 2005, dated 2010).
Entries after “also recorded” stand apart in the source; their conditions may differ.

Assays:
[1] = test system: OPN immunoreactivity in the rat SN; assay: Intranigral LPS injection, OPN immunoreactivity in the SN; type: in vivo; details: compared to saline treated animals
Method: (§1) Male Wistar rats (250-280 g) were obtained from Tuck (Essex, UK) and were kept on a 12 hour light/dark cycle at 21-24° C. with 55-65% humidity with unrestricted access to rat chow and water. All experiments were conducted according to the guidelines set out in the UK Animals (Scientific Procedures) Act 1986 and approved by the King's College London Ethics Committee.
(§2) Animals were randomly divided into 4 groups (n=16 in each group) anaesthetised with halothane (4% in 5%O2:95%CO2), placed in a stereotaxic frame (Kopf Instruments) with the incisor bar set at −3.3 mm and anaesthesia maintained using halothane (1.5-2%). The heads were shaved, scalp cut, skull exposed and a burr hole drilled on the left side of the skull. The following co-ordinates for the SN were used: AP: −4.8 mm, L: +2.0 mm, V: +8.0 mm (Paxinos & Watson, 1986). A 10 μl Hamilton syringe was used and 2 μl of LPS (n=8) (5 mg/ml dissolved in 0.9% sterile saline: E. coli 055:B5; Calbiochem, Nottingham, UK) or 2 μl of vehicle (0.9% sterile saline; n=8) was delivered over a period of 2 minutes. The needle was left in situ for a further 2 minutes before being slowly withdrawn. The wound was closed using Ethicon sutures and the animals allowed to recover from anaesthesia until freely moving before being returned to their home cages. […]

[2] = test system: TH positive cells in the rat SN; assay: Intranigral LPS injection, TH immunoreactive cell number in the SN; type: in vivo; details: compared to contralateral intact SN and to saline controls, present at 24, 48, 72 and 120 hrs
Method: as §1, §2

[3] = test system: TH positive cells in primary ventral mesencephalic cell cultures; assay: MPP+ dose response on TH positive cell number in primary ventral mesencephalic cell cultures; type: cell-based, rat; details: 24 hrs MPP+ exposure, 0.1-10 μM, n=3; read-out: EC50, dopaminergic (TH positive) cell death
Method: (§3) Primary ventral mesencephalic cell cultures: Primary cell cultures were prepared by dissecting out the ventral mesencephalon from E14 rat foetuses. The dissected tissue was pooled and incubated with 0.1% Trypsin solution. This solution was then removed and replaced with Dulbecco's modified Eagles medium (DMEM) containing 10% foetal bovine serum (FBS) and 0.25% penicillin-streptomycin-neomycin (PSN), and the tissue centrifuged for 1 minute at 200 rpm at room temperature. The supernatant was then removed, fresh medium was added and the tissue mechanically dissociated using increasing fine bore fire-polished Pasteur pipettes. Cell density was assessed using a haematocytometer and cells were plated in culture medium containing 10% FBS and 0.25% PSN at a density of 1-1.5×10^5 on sterile coverslips coated with 0.01 % poly-D-lysine. After 4 days the culture medium was removed and replaced with fresh serum free DMEM prior to treatment with MPP+ or OPN. […]
MPP+ dose response: MPP+ was dissolved in sterile PBS and the primary cell cultures were incubated for 24 hrs with one of the following concentrations of MPP+: 0.1, 0.5, 1, 2, 5, 10 μM MPP+ or vehicle (PBS). […] An EC50 was calculated (3.076±0.56) and a high (10 μM) or low (2 μM) MPP+ concentration was used to investigate the role of OPN in dopaminergic cell survival. […]

[4] = test system: TH positive cells in primary ventral mesencephalic cultures; assay: Survival of TH positive cells in primary ventral mesencephalic cultures, pre-treatment followed by MPP+; type: cell-based, rat; details: for effect on survival/death of TH positive cells: 24 hrs pre-treatment, n=3; for concentration of maximal efficacy (TH cell survival): lowest concentration used
Method: Primary ventral mesencephalic cell cultures: Primary cell cultures were prepared by dissecting out the ventral mesencephalon from E14 rat foetuses. The dissected tissue was pooled and incubated with 0.1% Trypsin solution. This solution was then removed and replaced with Dulbecco's modified Eagles medium (DMEM) containing 10% foetal bovine serum (FBS) and 0.25% penicillin-streptomycin-neomycin (PSN), and the tissue centrifuged for 1 minute at 200 rpm at room temperature. The supernatant was then removed, fresh medium was added and the tissue mechanically dissociated using increasing fine bore fire-polished Pasteur pipettes. Cell density was assessed using a haematocytometer and cells were plated in culture medium containing 10% FBS and 0.25% PSN at a density of 1-1.5×10^5 on sterile coverslips coated with 0.01 % poly-D-lysine. After 4 days the culture medium was removed and replaced with fresh serum free DMEM prior to treatment with MPP+ or OPN. Each treatment was done in triplicate per experiment and each series of experiments was repeated a further 2 times to give a final n=3.
Manipulation of the OPN system: Cultures were incubated with one of the following treatments for 24 hrs prior to MPP+ administration (either 10 μM or 2 μM MPP+): OPN protein (1, 5, 10, 25, 50 & 100 ng/ml), anti-OPN antibody (26.5, 53, 265, 530 ng/ml and 1.325, 2.65 μg/ml), anti-αv or anti-β3 integrin receptor subunit antibody (0.02, 0.04, 0.2, 0.4, 1 & 2 μg/ml). Control groups received no MPP+ treatment.
(§4) Tyrosine hydroxylase (TH) immunohistochemistry: The culture medium was removed from the cells and the coverslips were fixed in 4% paraformaldehyde prior to peroxidase detection of TH using the ABC immunohistochemical method. Coverslips were mounted and examined using a Zeiss Axiophot microscope at a 50× magnification and the number of TH positive cells on each coverslip was manually counted in four fields chosen at random.(total area: 8 mm^2).

[5] = test system: TH positive cells in primary ventral mesencephalic cultures; assay: Survival of TH positive cells in primary ventral mesencephalic cultures without MPP+ treatment; type: cell-based, rat; details: 24 hrs incubation, no MPP+ (no toxin), n=3
Method: as §3, §4

lipopolysaccharide [LPS]
increase in OPN immunoreactivity [1]: 14 fold
decrease in TH positive cells in the LPS injected SN [2]: 70%

C[n+]1ccc(-c2ccccc2)cc1 [MPP+]
EC50 [3]: 3.08 ± 0.56 µM

OPN protein fragment: 15 amino acid fragment of rat osteopontin containing the RGD αvβ3 integrin binding site and the α4 and α9 integrin subunit binding sites (TVDVPDGRGDSLAYG; listed as Rattus norvegicus)
effect on survival/death of TH positive cells ([4]; then 2 μM MPP+ for 24 hrs): almost completely protected dopaminergic cells; also recorded: increased TH cell survival
effect on survival/death of TH positive cells ([4]; then 10 μM MPP+ for 24 hrs): almost completely protected dopaminergic cells; also recorded: increased survival of TH positive cells
concentration of maximal efficacy (TH cell survival) ([4]; then 2 μM MPP+): 1 ng/mL
concentration of maximal efficacy (TH cell survival) ([4]; then 10 μM MPP+): 1 ng/mL
effect on viability of TH positive cells [5]: not found to affect the viability; also recorded: no effect
